{
  "source": "patent US20090118285A1",
  "about": "“USE OF KCNQ-OPENERS FOR TREATING OR REDUCING THE SYMPTOMS OF SCHIZOPHRENIA” (H. Lundbeck A/S, priority 2006, published 2009)",
  "key": {"[1]": {"system": "KCNQ channels", "settings": "Wuttke et al. 2005; cited from earlier work"}, "[2]": {"system": "incidence of seizures in epileptic patients", "settings": "clinical trials (Bialer et al. 2002); cited from earlier work"}, "[3]": {"system": "DA levels in the nucleus accumbens", "test": "Microdialysis: DA levels in the nucleus accumbens of freely moving rats", "assay_type": "in vivo, rat", "settings": "no amphetamine provocation, data not shown"}, "[4]": {"system": "dopaminergic neurons in the ventral tegmental area", "settings": "ex vivo (Hansen et al. 2005); cited from earlier work"}, "[5]": {"test": "in vivo", "settings": "Wistar, rat, sc"}, "[6]": {"system": "anticonvulsant tests", "settings": "oral and intraperitoneal administration, rats and mice (Rostock et al. 1996); cited from earlier work"}, "[7]": {"system": "amphetamine-induced hyperactivity in the rat", "test": "Amphetamine challenge: d-amphetamine induced hyperactivity in rats", "assay_type": "in vivo", "settings": "test substance s.c. 30 min before d-amphetamine sulphate 0.5 mg/kg, motility 2 hours, read-out: Amphetamine antagonism ED50 ± std. dev.", "from_the_text": "D-amphetamine administration to rodents stimulates an increase in locomotor activity via mesolimbic dopamine receptors in the nucleus accumbens. While psychostimulant psychosis may not model all forms of schizophrenia, it may have applicability to paranoid schizophrenia and non-schizophrenic psychotic disorders (Krystal et al. pp. 214-224 in Neurobiology of Mental Illness ISBN 0-19-511265-2). It is believed that inhibition of the amphetamine-induced increase in locomotor activity is a reliable method for the evaluation of compounds with an antipsychotic potential (Ögren et al., European J. Pharmacol. 1984, 102, 459-464). In the following experiment, it was tested if the inhibition of spontaneous DA neurons in the mesolimbic circuit that was assessed above, could be translated into behavioral antipsychotic endpoint.\nSubjects. Male Wistar rats (Taconic, Denmark) weighing 170-240 g are used. The animals were housed under a 12-hr light/dark cycle under controlled conditions for regular in-door temperature (21±2° C.) and humidity (55±5%) with food and tap water available ad libitum. Eight rats were used at each dose level and in the parallel control group receiving the vehicle to the test compound plus d-amphetamine and the group receiving vehicle injections only."}, "[8]": {"system": "K(+) current in neuronal cells", "settings": "cited from earlier work"}, "[9]": {"system": "DA levels in the nucleus accumbens", "test": "Microdialysis: DA levels in the nucleus accumbens of freely moving rats", "assay_type": "in vivo, rat", "settings": "8.1 mg/kg s.c.", "from_the_text": "It is well-known that psychostimulants increase locomotor activity via an increase in extracellular DA levels in the nucleus accumbens, which is the terminal area of the mesolimbic DA projections (Guix et al., 1992, Neurosci. Lett., 138(1), 137-140; Moghaddam et al., 1989, Synapse, 4(2), 156-161). It is also known, that the antagonistic effect of antipsychotics on stimulant-induced hyperlocomotion is related to the effect of antipsychotics to inhibit the stimulated DA levels in the nucleus accumbens (Broderick et al., 2004, Prog. Neuropsychopharmacology and Biol. Psych., 28, 157-171). Thus, the nucleus accumbens is an accepted neuroanatomical site for testing reversal of positive symptoms of psychosis. […] The experiments were conducted such that the data may be associated with the behavioural data obtained above.\nSubjects. Male Sprague-Dawley rats (Charles River), initially weighing 275-300 g, were used. The animals were housed under a 12-hr light/dark cycle under controlled conditions for regular in-door temperature (21±2° C.) and humidity (55±5%) with food and tap water available ad libitum.\nSurgery. Animals were anaesthetized with hypnorm/dormicum (2 ml/kg s.c.) and intracerebral guide cannulas (CMA/12) were stereotaxically implanted, positioning the dialysis probe tip in the nucleus accumbens (co-ordinates: […] anterior to bregma, —1.2 mm lateral to bregma, 8.0 mm ventral to the dura). Anchor screws and acrylic cement was applied for fixation of the guide cannula. The body temperature of the animals was maintained at 37° C. by means of a rectal probe and a heating plate. The rats were allowed to recover from surgery for 2 days, housed singly in cages.\nExperimental procedure. On the day of the experiment, a microdialysis probe (CMA/12, 0.5 mm diameter, 2 mm length) was inserted through the guide cannula of the conscious animal. The probes were connected to a microinjection pump via a dual channel swivel which allowed the animals unrestricted movements. Perfusion of the microdialysis probe with filtered Ringer solution (145 mM NaCl, 3 mM KCl, 1 mM MgCl2, 1.2 mM CaCl2) was maintained for the duration of the experiment at a constant flow rate of 1 μL/min. After 180 min of stabilisation, the experiments were initiated. Dialysates were collected every 20 min. After the experiments the rats were sacrificed by decapitation, their brains removed, frozen and sliced for probe placement verification.\nAdministration of compounds. […] Thirty min after the first administration dex-amphetamine sulphate (0.5 mg/kg s.c.) was administered.\nAnalysis of dialysate. The concentration of dopamine (DA) in the dialysates was assessed by means of HPLC with electrochemical detection. The dialysate constitutents were separated by reverse phase liquid chromatography (ODS 150×3 mm, […]). Mobile phase consisted of 90 mM NaH2PO4, 50 mM sodium citrate, 367 mg/l sodium 1-octanesulfonic acid, 50 μM EDTA and 8% acetonitrile (pH 4.0) at a flow rate of 0.5 ml/min. Electrochemical detection of DA was accomplished using a coulometric detector; potential set at E1=−75 mV and E2=300 mV (guard cell at 350 mV) (Coulochem II, ESA). The dialysate levels of DA in the three dialyse samples preceding the administration of compound were averaged and used as baseline level of DA (100%)"}},
  "data": [
    {"smiles": "CCOC(=O)Nc1ccc(NCc2ccc(F)cc2)cc1N", "values": [
      {"measurement": "Binding to KCNQ channels", "setting": "[1]", "value": "bind to KCNQ channels"},
      {"measurement": "Incidence of seizures in epileptic patients", "setting": "[2]", "value": "shown effectiveness in reducing the incidence of seizures in epileptic patients"},
      {"measurement": "Effect on basal extracellular DA level in the nucleus accumbens", "setting": "[3]", "value": "merely provoked levels of DA were affected, but not basal levels of DA"},
      {"measurement": "Firing of dopaminergic neurons in the ventral tegmental area", "setting": "[4]", "value": "suppress the firing of dopaminergic neurons in the ventral tegmental area ex vivo"},
      {"measurement": "ED50 at 2 h", "setting": "[5]", "value": "> 8.1", "unit": "mg/kg"},
      {"measurement": "Activity in a range of anticonvulsant tests", "setting": "[6]", "value": "active after oral and intraperitoneal administration in rats and mice in a range of anticonvulsant tests"},
      {"measurement": "ED50", "setting": "[7]", "value": 2.3, "unit": "mg/kg"},
      {"measurement": "Activation of a K(+) current", "setting": "[8]", "value": "activate a K(+) current in neuronal cells"},
      {"measurement": "DA level in the nucleus accumbens, amphetamine + compound", "setting": "[9]; time 0 min, freely moving rats", "value": "96 ± 6 % of baseline"},
      {"measurement": "DA level in the nucleus accumbens, amphetamine + compound", "setting": "[9]; time 20 min, amphetamine 0.5 mg/kg s.c. 30 min after compound", "value": "160 ± 11 % of baseline"},
      {"measurement": "DA level in the nucleus accumbens, amphetamine + compound", "setting": "[9]; time 40 min, amphetamine 0.5 mg/kg s.c. 30 min after compound", "value": "241 ± 33 % of baseline"},
      {"measurement": "DA level in the nucleus accumbens, amphetamine + compound", "setting": "[9]; time 60 min, amphetamine 0.5 mg/kg s.c. 30 min after compound", "value": "221 ± 26 % of baseline"},
      {"measurement": "DA level in the nucleus accumbens, amphetamine + compound", "setting": "[9]; time 80 min, amphetamine 0.5 mg/kg s.c. 30 min after compound", "value": "217 ± 14 % of baseline"},
      {"measurement": "DA level in the nucleus accumbens, amphetamine + compound", "setting": "[9]; time 100 min, amphetamine 0.5 mg/kg s.c. 30 min after compound", "value": "173 ± 9 % of baseline"},
      {"measurement": "DA level in the nucleus accumbens, amphetamine + compound", "setting": "[9]; time 120 min, amphetamine 0.5 mg/kg s.c. 30 min after compound", "value": "139 ± 9 % of baseline"},
      {"measurement": "DA level in the nucleus accumbens, amphetamine + compound", "setting": "[9]; time 140 min, amphetamine 0.5 mg/kg s.c. 30 min after compound", "value": "120 ± 9 % of baseline"},
      {"measurement": "DA level in the nucleus accumbens, amphetamine + compound", "setting": "[9]; time −20 min, freely moving rats", "value": "99 ± 6 % of baseline"},
      {"measurement": "DA level in the nucleus accumbens, amphetamine + compound", "setting": "[9]; time −40 min, freely moving rats", "value": "105 ± 3 % of baseline"}
    ]}
  ]
}
